Laboratory results from patent publication EP2915814A2, “Crystalline salts of sitagliptin” (priority 2008, dated 2010).
Where a name gives a salt, the structure may show the parent alone. Read-outs that look alike come from different tables or passages of the source. Marks after values point to notes of the source that are not given here.

Columns and labels:
[1] = Dissolution of salts (done on 1 capsule each); format: physicochemical; conditions: for Dissolution in capsule in acetate buffer pH 4.5 medium at 50 rpm at 10 min (% release as free base) / Dissolution in capsule in acetate buffer pH 4.5 medium at 50 rpm at 30 min (% release as free base): acetate buffer pH 4.5, 50 rpm; for Dissolution in capsule in phosphate buffer pH 7.4 medium at 50 rpm at 10 min (% release as free base) / Dissolution in capsule in phosphate buffer pH 7.4 medium at 50 rpm at 30 min (% release as free base): phosphate buffer pH 7.4, 50 rpm
Description: Table 28: Dissolution results of salts (Done on 1 capsule each)

[2] = Hygroscopicity studies (water content after storage at 43 %, 75 % and 93 % relative humidity); format: physicochemical; conditions: for Hygroscopicity 2 weeks 43 % rh: 2 weeks at 43 % rh; for Hygroscopicity 2 weeks 43 % rh / Hygroscopicity 2 weeks 75 % rh / Hygroscopicity 2 weeks 93 % rh: % Equilibrium moisture content, ss = semi solid state of sample, β = solid first changed into liquid and solidified again; for Hygroscopicity 2 weeks 75 % rh: 2 weeks at 75 % rh; for Hygroscopicity 2 weeks 93 % rh: 2 weeks at 93 % rh; for Initial water content: initial sample; for change during the hygroscopicity studies: 43 %, 75 % and 93 % relative humidity, confirmed by DSC of samples kept at 93 % relative humidity for 2 weeks
Description: The salts of the present invention and the free base were studied under three different humidity conditions (43 % relative humidity, 75 % relative humidity, and 93 % relative humidity).

[3] = Evaluation of sitagliptin salts for processability; conditions: for Appearance: powder
Description: Table 29: Evaluation of different Sitagliptin salts for processability

[4] = Stability studies (storage at 60 °C in closed bottles or at 40 °C / 75 % RH in an open bottle; related substances by HPLC); conditions: for Initial Related Substances: before storage
[5] = pH of aqueous solution; format: physicochemical; conditions: 2 % aqueous solution
[6] = Solubility in water / aqueous solution; format: physicochemical; conditions: compared to other known salts of sitagliptin
[7] = solid; for Related Substances 4 w 40°C/75 % RH closed / Related Substances 4 w 40°C/75 % RH open / Related Substances 4 w 60°C Closed bottle: 672 h; for Related Substances 12 weeks 40°C/75 % RH closed bottle / Related Substances 12 weeks 40°C/75 % RH open bottle: 2016 h; for Related Substances 2 W 40°C/75 % RH open / Related Substances 2 W 60°C closed: 336 h; for Related Substances 2 W 60°C closed / Related Substances 4 w 60°C Closed bottle: closed bottle

N[C@@H](CC(=O)N1CCn2c(nnc2C(F)(F)F)C1)Cc1cc(F)c(F)cc1F [HCl II]
Dissolution in capsule in acetate buffer pH 4.5 medium at 50 rpm at 10 min (% release as free base) [1]: 93.89% | Dissolution in capsule in acetate buffer pH 4.5 medium at 50 rpm at 30 min (% release as free base) [1]: 100% | Dissolution in capsule in pH 6.8 buffer at 50 rpm at 10 min (% release as free base) [1]: 90.13% | Dissolution in capsule in pH 6.8 buffer at 50 rpm at 30 min (% Release as free base) [1]: 91.21% | Dissolution in capsule in phosphate buffer pH 7.4 medium at 50 rpm at 10 min (% release as free base) [1]: 93.63% | Dissolution in capsule in phosphate buffer pH 7.4 medium at 50 rpm at 30 min (% release as free base) [1]: 99.67%

N[C@@H](CC(=O)N1CCn2c(nnc2C(F)(F)F)C1)Cc1cc(F)c(F)cc1F [M: Phosphate]
Hygroscopicity 2 weeks 43 % rh [2]: 3.69% | Hygroscopicity 2 weeks 75 % rh [2]: 3.67% | Hygroscopicity 2 weeks 93 % rh [2]: 3.73% | Initial water content ([2]; before storage): 3.59% | Flowability [3]: Good | Poured density, m/V0 [3]: 0.52 g/ml | Sticking tendency [3]: None | Tapped density, m/V1250 [3]: 0.57 g/mL | Apparent Volume V0 [3]: 190 mL | Apparent Volume V10 [3]: 185 mL | Apparent Volume V500 [3]: 175 mL | Apparent Volume V1250 [3]: 174 mL | Appearance [3]: White to off-white powder, fine powder, few agglomerates.

N[C@@H](CC(=O)N1CCn2c(nnc2C(F)(F)F)C1)Cc1cc(F)c(F)cc1F [O: Sulfate II]
Hygroscopicity 2 weeks 43 % rh [2]: 2.59% | Hygroscopicity 2 weeks 75 % rh [2]: 7.1% | Hygroscopicity 2 weeks 93 % rh [2]: 7.33% | Initial water content ([2]; before storage): 1.88% | Flowability [3]: Good | Poured density, m/V0 [3]: 0.483 g/ml | Sticking tendency [3]: Very low | Tapped density, m/V1250 [3]: 0.508 g/mL | Apparent Volume V0 [3]: 40 mL | Apparent Volume V10 [3]: 40 mL | Apparent Volume V500 [3]: 38 mL | Apparent Volume V1250 [3]: 38 mL | Appearance [3]: White to off-white powder with big, coarse and hard particles. | Related Substances 2 W 40°C/75 % RH open ([4]; 2 weeks, 40°C/75 % RH, open, 20160 min): 0.23% | Related Substances 2 W 60°C closed ([4]; 2 weeks, 60°C, closed, 20160 min): 0.20% | Related Substances 4 w 40°C/75 % RH closed ([4]; 4 weeks, 40°C/75 % RH, closed, 40320 min): 0.24% | Related Substances 4 w 40°C/75 % RH open ([4]; 4 weeks, 40°C/75 % RH, open, 40320 min): 0.36% | Related Substances 4 w 60°C Closed bottle ([4]; 4 weeks, 60°C, closed bottle, 40320 min): 0.31% | Related Substances 12 weeks 40°C/75 % RH closed bottle ([4]; 12 weeks, 40°C/75 % RH, closed bottle, 120960 min): 0.25% | Related Substances 12 weeks 40°C/75 % RH open bottle ([4]; 12 weeks, 40°C/75 % RH, open bottle, 120960 min): 0.46% | Initial Related Substances [4]: 0.20%

N[C@@H](CC(=O)N1CCn2c(nnc2C(F)(F)F)C1)Cc1cc(F)c(F)cc1F [Phosphate H2O Ref]
Dissolution in capsule in acetate buffer pH 4.5 medium at 50 rpm at 10 min (% release as free base) [1]: 48.08% | Dissolution in capsule in acetate buffer pH 4.5 medium at 50 rpm at 30 min (% release as free base) [1]: 98.48% | Dissolution in capsule in pH 6.8 buffer at 50 rpm at 10 min (% release as free base) [1]: 86.65% | Dissolution in capsule in pH 6.8 buffer at 50 rpm at 30 min (% Release as free base) [1]: 91.12% | Dissolution in capsule in phosphate buffer pH 7.4 medium at 50 rpm at 10 min (% release as free base) [1]: 80.81% | Dissolution in capsule in phosphate buffer pH 7.4 medium at 50 rpm at 30 min (% release as free base) [1]: 99.18% | Dissolution in capsule in water medium at 50 rpm at 10 min (% release as free base) [1]: 46.63% | Dissolution in capsule in water medium at 50 rpm at 30 min (% release as free base) [1]: 96.30%

N[C@@H](CC(=O)N1CCn2c(nnc2C(F)(F)F)C1)Cc1cc(F)c(F)cc1F [sitagliptin hydrochloride, Sitagliptin Hydrochloride Form II]
hygroscopicity ([2]; prolonged storage at 93 % relative humidity): not hygroscopic | pH [5]: 5.8 ± 0.1 | stability (degradation, related substances by HPLC) ([4]; closed bottle, four weeks at 60 °C): excellent stability

N[C@@H](CC(=O)N1CCn2c(nnc2C(F)(F)F)C1)Cc1cc(F)c(F)cc1F [sulfate (non solvated), Sitagliptin Sulfate Form II]
change during the hygroscopicity studies ([2]; listed as sitagliptin sulfate (non solvated)): increase in water content corresponding to conversion of hemihydrate to dihydrate | solubility in water [6]: very high solubility in water | stability (degradation, related substances by HPLC) ([4]; closed bottle, four weeks at 60 °C, listed as sitagliptin hemisulphate): excellent stability | stability (degradation, related substances by HPLC) ([4]; closed bottle, two weeks at 60 °C): stable

Amorphous Sitagliptin Citrate [citrate (amorphous)]
solid form conversion on humidity storage ([2]; two weeks storage at 93% relative humidity): partial conversion into the respective crystalline form | Dissolution in capsule in pH 6.8 buffer at 50 rpm at 10 min (% release as free base) [1]: 62.4% | Dissolution in capsule in pH 6.8 buffer at 50 rpm at 30 min (% Release as free base) [1]: 89.47% | Dissolution in capsule in water medium at 50 rpm at 10 min (% release as free base) [1]: 75.89% | Dissolution in capsule in water medium at 50 rpm at 30 min (% release as free base) [1]: 94.23%

Sitagliptin Fumarate Form I [D:Fumarate I]
Hygroscopicity (water content) ([2]; 2 weeks 43 % rh): 1.058% | Hygroscopicity (water content) ([2]; 2 weeks 75 % rh): 1.078% | Hygroscopicity (water content) ([2]; 2 weeks 93 % rh): 1.168% | change during the hygroscopicity studies [2]: did not show much change | Initial water content ([2]; before humidity storage): 0.89% | Related Substances 4 w 40°C/75 % RH closed [7]: 0.07% | Related Substances 12 weeks 40°C/75 % RH closed bottle [7]: 0.13% | Related Substances 2 W 40°C/75 % RH open [7]: 0.01% | Related Substances 4 w 40°C/75 % RH open [7]: 0.06% | Related Substances 12 weeks 40°C/75 % RH open bottle [7]: 0.11% | Related Substances 2 W 60°C closed [7]: 0.01% | Related Substances 4 w 60°C Closed bottle [7]: 0.03% | Initial Related Substances [4]: 0%

Sitagliptin Malate
change during the hygroscopicity studies [2]: did not show much change | Dissolution in capsule in pH 6.8 buffer at 50 rpm at 10 min (% release as free base) [1]: 84.72% | Dissolution in capsule in pH 6.8 buffer at 50 rpm at 30 min (% Release as free base) [1]: 90.94% | Dissolution in capsule in water medium at 50 rpm at 10 min (% release as free base) [1]: 90.22% | Dissolution in capsule in water medium at 50 rpm at 30 min (% release as free base) [1]: 98.89%

Sitagliptin succinate Form I [F: Succinate I]
Hygroscopicity (water content) ([2]; 2 weeks 43 % rh): 1.36% | Hygroscopicity (water content) ([2]; 2 weeks 75 % rh): 1.78% | Hygroscopicity (water content) ([2]; 2 weeks 93 % rh): 19.58** % | Initial water content ([2]; before humidity storage): 0.90% | Related Substances 4 w 40°C/75 % RH closed [7]: 0.29% | Related Substances 12 weeks 40°C/75 % RH closed bottle [7]: 0.23% | Related Substances 2 W 40°C/75 % RH open [7]: 0.13% | Related Substances 4 w 40°C/75 % RH open [7]: 0.25% | Related Substances 12 weeks 40°C/75 % RH open bottle [7]: 0.16% | Related Substances 2 W 60°C closed [7]: 0.30% | Related Substances 4 w 60°C Closed bottle [7]: 0.58% | Initial Related Substances [4]: 0.14%
